pIC50: −log10 of the molar value.
System: MV-4-11 cells
Experiment: Cell Viability Assay in MV-4-11 Cells
Assay type: cell-based
Conditions: Homo sapiens, MV4-11, 72 h, MV-4-11 cells, 72 h, Cell-Titer Glo; read-out: IC50
Procedure, shortened: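 MV-4-11 cells at 7,000/well in IMDM with 10% FBS, exposed to compound for 72 h. Viability by CellTiter-Glo luminescence, normalized to DMSO as 100%, fitted with a four-parameter curve.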

COCCn1cc(-c2ccc(C(=O)N(c3nccc4scc(C)c34)[C@@H]3CCCNC3)c(F)c2)nn1 [Example 640, (R)-2-fluoro-4-(1-(2-methoxyethyl)-1H-1,2,3-triazol-4-yl)-N-(3-methylthieno[3,2-c]pyridin-4-yl)-N-(piperidin-3-yl)benzamide]
pIC50: 7.07

Cc1cc(C)c2c(N(C(=O)c3ccc(-c4nnc(C)s4)cc3F)[C@@H]3CCCNC3)nccc2c1 [Example 641, (R)—N-(6,8-dimethylisoquinolin-1-yl)-2-fluoro-4-(5-methyl-1,3,4-thiadiazol-2-yl)-N-(piperidin-3-yl)benzamide]
pIC50: 7.25

Cc1cc(C)c2c(N(C(=O)c3ccc(-c4nnc(C)o4)nc3)[C@@H]3CCCNC3)nccc2c1 [Example 642, (R)—N-(6,8-dimethylisoquinolin-1-yl)-6-(5-methyl-1,3,4-oxadiazol-2-yl)-N-(piperidin-3-yl)nicotinamide]
pIC50: 6.80

Cc1cc(C)c2c(N(C(=O)c3ccc(-c4nnc(C)o4)cc3F)[C@@H]3CCCNC3)nccc2c1 [Example 643, (R)—N-(6,8-dimethylisoquinolin-1-yl)-2-fluoro-4-(5-methyl-1,3,4-oxadiazol-2-yl)-N-(piperidin-3-yl)benzamide]
pIC50: 7.19

Cc1cccc2ccnc(N(C(=O)c3ccc(N4CCOC(C)(C)C4)cc3F)[C@@H]3CCCNC3)c12 [Example 644, 4-(2,2-dimethylmorpholin-4-yl)-2-fluoro-N-(8-methyl-1-isoquinolyl)-N-[(3R)-3-piperidyl] benzamide]
pIC50: < 5.20

Cc1cccc2ccnc(N(C(=O)c3ccc(N4CCOc5ccccc54)cc3F)[C@@H]3CCCNC3)c12 [Example 645, 4-(2,3-dihydro-1,4-benzoxazin-4-yl)-2-fluoro-N-(8-methyl-1-isoquinolyl)-N-[(3R)-3-piperidyl] benzamide]
pIC50: 5.62

Cc1cccc2ccnc(N(C(=O)c3ccc(N4CCOc5cccnc54)cc3F)[C@@H]3CCCNC3)c12 [Example 646, 4-(2,3-dihydropyrido[3,2-b][1,4]oxazin-4-yl)-2-fluoro-N-(8-methyl-1-isoquinolyl)-N-[(3R)-3-piperidyl]benzamide]
pIC50: 5.66

Cc1nnc(-c2ccc(C(=O)N(c3nccc4cc(F)cc(C)c34)[C@@H]3CCCNC3)cn2)s1 [Example 647, N-(6-fluoro-8-methyl-1-isoquinolyl)-6-(5-methyl-1,3,4-thiadiazol-2-yl)-N-[(3R)-3-piperidyl] pyridine-3-carboxamide]
pIC50: 6.89

Cc1cc(C)c2c(N(C(=O)c3ccc(-c4nnc(C)s4)nc3)[C@@H]3CCCNC3)nccc2c1 [Example 648, (R)—N-(6,8-dimethylisoquinolin-1-yl)-6-(5-methyl-1,3,4-thiadiazol-2-yl)-N-(piperidin-3-yl)nicotinamide]
pIC50: 7.41

CCc1nnc(-c2ccc(C(=O)N(c3nccc4scc(C)c34)[C@@H]3CCCNC3)c(F)c2)o1 [Example 649, (R)-4-(5-ethyl-1,3,4-oxadiazol-2-yl)-2-fluoro-N-(3-methylthieno[3,2-c]pyridin-4-yl)-N-(piperidin-3-yl)benzamide]
pIC50: 6.77

Cc1cc(F)cc2ccnc(N(C(=O)c3ccc(-c4nnc(O)s4)cc3F)[C@@H]3CCCNC3)c12 [Example 650, 2-fluoro-N-(6-fluoro-8-methyl-1-isoquinolyl)-4-(5-hydroxy-1,3,4-thiadiazol-2-yl)-N-[(3R)-3-piperidyl]benzamide]
pIC50: 5.44

C=C(C)c1csc2ccnc(N(C(=O)c3ccc(-c4nnc(C)s4)cc3F)[C@@H]3CCCNC3)c12 [Example 651, 2-fluoro-N-(3-isopropenylthieno[3,2-c]686yridine-4-yl)-4-(5-methyl-1,3,4-thiadiazol-2-yl)-N-[(3R)-3-piperidyl]benzamide]
pIC50: 6.34

C#Cc1csc2ccnc(N(C(=O)c3ccc(-c4nnc(C)s4)cc3F)[C@@H]3CCCNC3)c12 [Example 652, N-(3-ethynylthieno[3,2-c]pyridine-4-yl)-2-fluoro-4-(5-methyl-1,3,4-thiadiazol-2-yl)-N-[(3R)-3-piperidyl] benzamide]
pIC50: 6.74

Cc1nnc(-c2ccc(C(=O)N(c3nccc4scc(Cl)c34)[C@@H]3CCCNC3)c(F)c2)s1 [Example 653, N-(3-chlorothieno[3,2-c] 690yridine-4-yl)-2-fluoro-4-(5-methyl-1,3,4-thiadiazol-2-yl)-N-[(3R)-3-piperidyl] benzamide]
pIC50: 6.74

CCc1nnc(-c2ccc(C(=O)N(c3nccc4cc(Cl)cc(C)c34)[C@@H]3CCCNC3)c(F)c2)o1 [Example 654, (R)—N-(6-chloro-8-methylisoquinolin-1-yl)-4-(5-ethyl-1,3,4-oxadiazol-2-yl)-2-fluoro-N-(piperidin-3-yl)benzamide]
pIC50: 6.82

Cc1cn(-c2ccc(C(=O)N(c3nccc4c(F)ccc(C)c34)[C@@H]3CCCNC3)c(F)c2)nn1 [Example 655, (R)-2-fluoro-N-(5-fluoro-8-methylisoquinolin-1-yl)-4-(4-methyl-1H-1,2,3-triazol-1-yl)-N-(piperidin-3-yl)benzamide]
pIC50: 7.08

Cc1ccc(F)c2ccnc(N(C(=O)c3ccc(-c4cn(C)nn4)cc3)[C@@H]3CCCNC3)c12 [Example 656, (R)—N-(5-fluoro-8-methylisoquinolin-1-yl)-4-(1-methyl-1H-1,2,3-triazol-4-yl)-N-(piperidin-3-yl)benzamide]
pIC50: 6.74

CCc1nnc(-c2ccc(C(=O)N(c3nccc4c(F)ccc(C)c34)[C@@H]3CCCNC3)c(F)c2)s1 [Example 657, (R)-4-(5-ethyl-1,3,4-thiadiazol-2-yl)-2-fluoro-N-(5-fluoro-8-methylisoquinolin-1-yl)-N-(piperidin-3-yl)benzamide]
pIC50: 6.77

Cc1cc(C2CCN(C(=O)N(c3nccc4cc(F)cc(C)c34)[C@@H]3CCCNC3)CC2)on1 [Example 658, (R)—N-(6-fluoro-8-methylisoquinolin-1-yl)-4-(3-methylisoxazol-5-yl)-N-(piperidin-3-yl)piperidine-1-carboxamide]
pIC50: 6.21

Cc1cc(C2CCN(C(=O)N(c3nccc4c(F)ccc(C)c34)[C@@H]3CCCNC3)CC2)on1 [Example 659, (R)—N-(5-fluoro-8-methylisoquinolin-1-yl)-4-(3-methylisoxazol-5-yl)-N-(piperidin-3-yl)piperidine-1-carboxamide]
pIC50: 6.29

Cc1nnc(-c2ccc(C(=O)N(c3nccc4c(F)ccc(C)c34)[C@@H]3CCCNC3)c(F)c2)o1 [Example 660, (R)-2-fluoro-N-(5-fluoro-8-methylisoquinolin-1-yl)-4-(5-methyl-1,3,4-oxadiazol-2-yl)-N-(piperidin-3-yl)benzamide]
pIC50: 6.70

Cc1ccc(F)c2ccnc(N(C(=O)c3ccc(Nc4ncccn4)cc3F)[C@@H]3CCCNC3)c12 [Example 661, (R)-2-fluoro-N-(5-fluoro-8-methylisoquinolin-1-yl)-N-(piperidin-3-yl)-4-(pyrimidin-2-ylamino)benzamide]
pIC50: 6.77

Cc1cccc2ccnc(N(C(=O)c3ccc(Nc4nccc(C5CCNCC5)n4)cc3F)[C@@H]3CCCNC3)c12 [Example 662, (R)-2-fluoro-N-(8-methylisoquinolin-1-yl)-N-(piperidin-3-yl)-4-((4-(piperidin-4-yl)pyrimidin-2-yl)amino)benzamide]
pIC50: 6.40

Cc1cccc2ccnc(N(C(=O)c3ccc(Nc4nccc(C5CCOCC5)n4)cc3F)[C@@H]3CCCNC3)c12 [Example 663, (R)-2-fluoro-N-(8-methylisoquinolin-1-yl)-N-(piperidin-3-yl)-4-((4-(tetrahydro-2H-pyran-4-yl)pyrimidin-2-yl)amino)benzamide]
pIC50: 6.96

Cc1nnc(-c2ccc(C(=O)N(c3nccc4c(Cl)cn(C)c34)[C@@H]3CCCNC3)c(F)c2)s1 [Example 664, (R)—N-(3-chloro-1-methyl-1H-pyrrolo[2,3-c]pyridin-7-yl)-2-fluoro-4-(5-methyl-1,3,4-thiadiazol-2-yl)-N-(piperidin-3-yl)benzamide]
pIC50: 6.70

Cc1cccc2ccnc(N(C(=O)c3ccc(Nc4nccc(C5=CCNCC5)n4)cc3F)[C@@H]3CCCNC3)c12 [Example 665, (R)-2-fluoro-N-(8-methylisoquinolin-1-yl)-N-(piperidin-3-yl)-4-((4-(1,2,3,6-tetrahydropyridin-4-yl)pyrimidin-2-yl)amino)benzamide]
pIC50: 6.60

CCc1nnc(-c2ccc(C(=O)N(c3nccc4sc(C)nc34)[C@@H]3CCCNC3)c(F)c2)s1 [Example 667, (R)-4-(5-ethyl-1,3,4-thiadiazol-2-yl)-2-fluoro-N-(2-methylthiazolo[4,5-c]pyridin-4-yl)-N-(piperidin-3-yl)benzamide]
pIC50: 7.26

CCc1nnc(-c2ccc(C(=O)N(c3nccc4scc(Cl)c34)[C@@H]3CCCNC3)nc2)s1 [Example 668, N-(3-chlorothieno[3,2-c]pyridin-4-yl)-5-(5-ethyl-1,3,4-thiadiazol-2-yl)-N-[(3R)-3-piperidyl]pyridine-2-carboxamide]
pIC50: 6.60

CCc1nnc(-c2ccc(C(=O)N(c3nccc4c(C)csc34)[C@@H]3CCCNC3)nc2)s1 [Example 669, 5-(5-ethyl-1,3,4-thiadiazol-2-yl)-N-(3-methylthieno[2,3-c]pyridin-7-yl)-N-[(3R)-3-piperidyl]pyridine-2-carboxamide]
pIC50: 5.49

CCc1nnc(-c2ccc(C(=O)N(c3nccc4scc(C)c34)[C@@H]3CCCNC3)nc2)s1 [Example 670, (R)-5-(5-ethyl-1,3,4-thiadiazol-2-yl)-N-(3-methylthieno[3,2-c]pyridin-4-yl)-N-(piperidin-3-yl)picolinamide]
pIC50: 6.77

CCc1nnc(-c2ccc(C(=O)N(c3nccc4cc(C)cc(C)c34)[C@@H]3CCCNC3)nc2)s1 [Example 671, (R)—N-(6,8-dimethylisoquinolin-1-yl)-5-(5-ethyl-1,3,4-thiadiazol-2-yl)-N-(piperidin-3-yl)picolinamide]
pIC50: 6.89

CCc1nnc(-c2ccc(C(=O)N(c3nccc4cc(F)cc(C)c34)[C@@H]3CCCNC3)nc2)s1 [Example 672, (R)-5-(5-ethyl-1,3,4-thiadiazol-2-yl)-N-(6-fluoro-8-methylisoquinolin-1-yl)-N-(piperidin-3-yl)picolinamide]
pIC50: 6.74

Reference: patent US20240400555A1 (Initial Therapeutics, Inc., priority 2023, published 2024)
